Where “and” joins values, the source holds several entries; their conditions need not be identical. Identical values can stand only once. Counter-ions that a name gives are not always drawn.
Key:
[1] = cold ethanol tail flick test, dose response and MonoNalbuphine derivative study; conditions: rats; for maximal analgesic effect found at (dose): intramuscularly injection, Figure 4
Description: Each group consisted of 6 rats, and each rat was injected once intramuscularly on the rear leg.
The dose for each rat was 25 micromole per kg, intramuscularly.
The time to stop the experiment was set at 40 seconds to prevent the tail from cold sore. No cold sores were found within 40 sec. Five minutes after the drug was given to the rat, the flick test was performed every 10 minutes or more.

[2] = in vitro release of Nalbuphine from vehicles (dialysis bag, UV); format: physicochemical; conditions: Fig. 2, p<0.05
[3] = after continuous use for 6 months; cited from earlier work
[4] = half-life of dinalbuphine sebacoyl ester in rat blood, HPLC; format: in vitro ADME
Description: • (a) Dinalbuphine sebacoyl ester(SDN) was dissolved in acetonitrile, the concentration was 7.75 mg/ml. • (b) 250 ml of whole blood was collected from rat administered with the thus formed dinalbuphine sebacoyl ester soft drug, and was added with anticoagulant.
(§1) All blood collections were analyzed by HPLC.

[5] = half-life of dinalbuphine sebacoyl ester in rabbit blood, HPLC; format: in vitro ADME
Description: • (a) Dinalbuphine ester sebacoyl ester was dissolved in acetonitrile, the concentration was 5.2 mg/ml. • (b) 150 ml of whole blood was collected from rabbit administered with the thus formed dinalbuphine sebacoyl ester soft drug, and was added with anticoagulant.
as §1

[6] = half-life of dinalbuphine sebacoyl ester in dog blood, HPLC; format: in vitro ADME
Description: • (a) Dinalbuphine sebacoyl ester was dissolved in acetonitrile, the concentration was 12.5 mg/ml. • (b)200 ml of whole blood was collected from dog administered with the thus formed dinalbuphine sebacoyl ester soft drug, and was added with anticoagulant.
as §1

[7] = half-life of dinalbuphine sebacoyl ester in human blood, HPLC; format: in vitro ADME
Description: • (a) Dinalbuphine sebacoyl ester was dissolved in acetonitrile, the concentration was 10 mg/ml. • (b) 250 ml of whole blood was collected from human administered with the thus formed dinalbuphine sebacoyl ester soft drug, and was added with anticoagulant.
as §1

[8] = analgesic effect after intramuscular injection to rats, polynalbuphine derivative study; format: in vivo, Sprague Dawley rats
Description: In the experiment, a circulating cold ethanol bath with a temperature maintained at -20°C was set up. After dosing, the rat tail(1/3 from the tip) was immersed in the bath. The latency for the rat to flick its tail from the bath was measured to be the analgesic threshold. The effect of various opium alkaloid preparations can be determined with this test.
The analgesic effect can be calculated as follows: analgesic effect (%) = (flicking time after dosing - flicking time before dosing ) / (test terminated time - flicking time before dosing ) X 100% [formula]
(§2) Six male Sprague Dawley rats (175 to 225 g), and six male guinea pig(200 to 250 g) were used.

[9] = clinical / estimated analgesic duration in humans; format: in vivo; conditions: 125 µM/ kg administered to a human body
Description: The analgesic effect was extended to 4-5 days, when the dose administered was below 125 µM/kg. […] The same level of analgesic effect for intramuscular injection to rats was required at 15.625 µM/kg(6.165 mg/kg).
Therefore, the analgesic effect is estimated 4-5 days when 125 µM/ kg of sebacoyl dinalbuphine ester is administered to a human body.
The amount of the aforesaid injection was about 10 ml. However, the analgesic effect could not be maintained 4 to 5 days even upon administration of 88 ml of Malbuphine hydrochloride because of metabolism. Besides, such parenteral volume was not ideal for a single dose. This invention made an improvement. By diluting a single dose of sebacoyl dinalbuphine in 7.15 ml sesame oil form, parenteral administration could maintain the analgesic effect 4 to 5 days.

[10] = pharmacokinetic study of long acting preparation in Beagle dog; format: in vivo, Beagle dogs
Description: Six Beagle dogs were used. Five Beagle dogs were intramuscularly injected with 30 mg/kg long acting sebacoyl dinalbuphine ester oily parenteral administration respectively, and another one was injected with 100 mg/kg long acting sebacoyl dinalbuphine ester oily parenteral administration. Blood samples were collected through the veins in front limbs of the dogs at 1, 2, 6, 24, 30, 48, 54, 72, 78, 96, 102, 120, 168, 192 hours. […] The relationship between time and concentration was analyzed by PCNONLIN computer program. Two-compartment model and pharmacokinetic parameters were calculated to depict absorption, distribution, metabolism, and excretion of drugs in the dogs.

[11] = in vivo; cited from earlier work
[12] = analgesic effect after intramuscular injection to guinea pigs; format: in vivo, guinea pig; conditions: 500 µM/kg and 250 µM/kg, Figure 7
Text: as §2

[13] = pharmacokinetic study of long acting preparation in Beagle dog; set-up: species or system Beagle dogs; conditions: in vivo, comparison with sebacoyl dinalbuphine ester, read-out: half life for excretion (converted)

For `CN1CC[C@]23c4c5ccc(O)c4O[C@H]2[C@@H](O)C=C[C@H]3[C@H]1C5.Cl` [Morphine hydrochloride], the “maximal analgesic effect found at (dose)” value [1] was 10 mg/kg.
For `Oc1ccc2c3c1O[C@H]1[C@@H](O)CC[C@@]4(O)[C@@H](C2)N(CC2CCC2)CC[C@]314` [Nalbuphine], the “amount of released Nalbuphine free base” value ([2]; between 17 and 28 hours) is given as “less in the preparation with sesame oil than with peanut oil and the phosphate buffer”, the release rate ([2]; sesame oil as the vehicle vs the other three preparations, between 1 and 11 hours) is given as “slowest release rate” and the “addiction, synergistic effect and respiratory inhibition” value [3] is given as “no significant addiction and synergistic effect was found, but only slight respiratory inhibition”. The analgesic duration ([1]; 25 micromole per kg intramuscularly, in sesame oil, compared with each preparation of MonoNalbuphine derivatives, Fig. 5) was “significantly shorter”.
For `O=C(CCCCCCCCC(=O)Oc1ccc2c3c1O[C@H]1[C@@H](O)CC[C@@]4(O)[C@@H](C2)N(CC2CCC2)CC[C@]314)Oc1ccc2c3c1O[C@H]1[C@@H](O)CC[C@@]4(O)[C@@H](C2)N(CC2CCC2)CC[C@]314` [sebacoyl dinalbuphine ester], the “converted time, which converts 90% dinalbuphine sebacoyl ester(SDN) into Nalbuphine” value ([4]; rat) was 10 min, the half-life ([4]; rat blood test, read-out: half life) was 2.8 min and the half-life ([4]; rat plasma, read-out: Elimination Half-life) was 2.8 min. For the same molecule, the half-life ([4]; rat whole blood, n=3, mean± S.E, read-out: Elimination Half-life) was 2.2 ± 0.5 min, the half-life ([4]; red blood cells, rat red blood cell, n=3, mean± S.E, read-out: Elimination Half-life) was 2.3 ± 0.6 min and the “converted time, which converts 90% dinalbuphine sebacoyl ester(SDN) into Nalbuphine” value ([5]; rabbit) was 25 min. The half-life ([5]; rabbit blood test, read-out: half life) was 7 min, the half-life ([5]; rabbit plasma, n=3, mean± S.E, read-out: Elimination Half-life) was 6.98 ± 0.03 min and the half-life ([5]; rabbit whole blood, n=3, mean± S.E, read-out: Elimination Half-life) was 14.9 ± 1.3 min. For the same molecule, the half-life ([5]; red blood cells, rabbit red blood cell, n=3, mean± S.E, read-out: Elimination Half-life) was 26.2 ± 4.8 min, the “converted time, which converts 90% dinalbuphine sebacoyl ester(SDN) into Nalbuphine” value ([6]; dog) was 95 min and the half-life ([6]; dog blood test, read-out: half life) was 27.8 min. It also gave a half-life ([6]; dog plasma, n=3, read-out: Elimination Half-life) of 27.8 ± 0.5 min, a half-life ([6]; dog whole blood, n=3, read-out: Elimination Half-life) of 30.5 ± 0.8 min and a half-life ([6]; red blood cells, dog red blood cell, n=3, read-out: Elimination Half-life) of 33.4 ± 1.4 min. The “converted time, which converts 90% dinalbuphine sebacoyl ester(SDN) into Nalbuphine” value ([7]; human) was 30 min, the half-life ([7]; human blood test, read-out: half life) was 9 min and the half-life ([7]; human plasma, n=3, read-out: Elimination Half-life) was 9 ± 0.4 min. The half-life ([7]; human whole blood, n=3, read-out: Elimination Half-life) was 8.8 ± 0.4 min, the half-life ([7]; red blood cells, human red blood cell, n=3, read-out: Elimination Half-life) was 7.7 ± 0.4 min and the “50% analgesic effect was extended to” value ([8]; intramuscular injection of 125 µM/kg, Figure 9) was 88 h. The analgesic effects ([8]; intramuscular injection, 7.8125, 31.25, 125 µM/kg, Figure 8) was “proportional to the dose administered”, the “analgesic effect relative to Nalbuphine hydrochloride” value ([8]; intramuscular, Figure 9) was 8.8 times and the “analgesic effect was extended to” value ([8]; intramuscular, dose administered below 125 µM/kg) was 4 to 5 days. The “analgesic effect estimated (duration)” value [9] was 4 to 5 days, the MRT ([10]; Beagle Dog 2, i.m., Dose 24.3 mg/kg) was 78.8 H and the MRT ([10]; Beagle Dog 2, i.m., Dose 81.0 mg/kg) was 127.2 H. For the same molecule, the MRT ([10]; Beagle dogs, 30 mg/kg i.m. oily injection, Mean of five dogs) was 73.2 H, the MRT ([10]; Beagle dogs, 30 mg/kg i.m. oily injection, individual dogs 1-5, listed as SDN, 30 mg/kg) was 84.3 H and 78.8 H and 61.1 H and 62.7 H and 79.1 H and the “kinetic across two doses” value ([10]; Beagle dogs, Table 6 vs Table 7) was “linear kinetic”. For the same molecule, the “absorption in injection oil vehicle” value ([10]; Beagle dogs, i.m., Figures 10 and 11) was “zero order”.
For `Oc1ccc2c(c1)[C@@]13CCCC[C@@]1(O)[C@@H](C2)N(CC1CCC1)CC3` [Butorphanol], the “dose needed to elicit the same analgesic effect” value [11] is listed as 2 mg.
In the case of `CN1CC[C@]23c4c5ccc(O)c4O[C@H]2[C@@H](O)C=C[C@H]3[C@H]1C5` [Morphine], the “dose needed to elicit the same analgesic effect” value [11] is listed as 10 mg.
With `Oc1ccc2c3c1O[C@H]1[C@@H](O)CC[C@@]4(O)[C@@H](C2)N(CC2CCC2)CC[C@]314` [Nalbuphine hydrochloride] the analgesic effects ([8]; intramuscular injection, 15.625, 62.5, 250 µM/kg, Figure 6) was “significant analgesic effects”, the analgesic effects [12] was “significant analgesic effects” and the half-life [13] was about 60 min. For the same molecule, the “maximal analgesic effect found at (dose)” value [1] was 100 mg/kg.

Reference: EP1149836B1, “Polynalbuphine derivatives” (Hu, Oliver Yoa-Pu, priority 2000, dated 2001)
